Assay results as given in PubChem BioAssay (NCI).
Values joined by “and” are separate entries in the source; they are usually repeats but may differ in a detail not shown here. Equal entries are not always repeated.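 Interpolation was linear, between the two tested concentrations surrounding the appropriate level; five concentrations were tested over 48 hours in 96-well plates. At the GI50, growth is halved. TGI: total growth inhibition.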

Legend:
Test in all cases: inhibition of tumour cell growth, NCI panel, 48 h
786-0 renal = system: 786-0 renal
UACC-257 melanoma = system: UACC-257 melanoma
NCI/ADR-RES ovarian = system: NCI/ADR-RES ovarian
OVCAR-4 ovarian = system: OVCAR-4 ovarian
HL-60(TB) leukemia = system: HL-60(TB) leukemia
SF-295 CNS = system: SF-295 CNS
NCI-H522 lung = system: NCI-H522 lung
OVCAR-5 ovarian = system: OVCAR-5 ovarian
EKVX NSCLC = system: EKVX NSCLC
RPMI-8226 leukemia = system: RPMI-8226 leukemia

Row | Structure (SMILES) | TGI (786-0 renal) | TGI (UACC-257 melanoma) | TGI (NCI/ADR-RES ovarian) | TGI (OVCAR-4 ovarian) | TGI (HL-60(TB) leukemia) | TGI (SF-295 CNS) | TGI (NCI-H522 lung) | TGI (OVCAR-5 ovarian) | TGI (EKVX NSCLC) | TGI (RPMI-8226 leukemia) | GI50 (786-0 renal) | GI50 (UACC-257 melanoma) | GI50 (NCI/ADR-RES ovarian) | GI50 (OVCAR-4 ovarian) | GI50 (HL-60(TB) leukemia) | GI50 (SF-295 CNS) | GI50 (NCI-H522 lung) | GI50 (OVCAR-5 ovarian) | GI50 (EKVX NSCLC) | GI50 (RPMI-8226 leukemia)
1 | c1cc(C2N3CCCN2CC3)ccn1 (centres undefined) | > 100 µM | > 100 µM | > 100 µM | > 100 µM | > 100 µM | > 100 µM | 18.4 µM | > 100 µM | > 100 µM | 71 µM |  |  |  |  |  |  |  |  |  | 
2 | Cc1cccc2cc3ccc4ccccc4c3cc12 | > 100 µM | 53 µM | > 100 µM | > 100 µM | 52 µM | > 100 µM | 95.5 µM | > 100 µM | 78.3 µM | > 100 µM |  |  |  |  |  |  |  |  |  | 
3 | CC1CCC(C#N)(NOC2=NCCN2)CC1 (centres undefined) | 37.1 µM | > 100 µM | > 100 µM | > 100 µM | > 100 µM | 93.4 µM | > 100 µM | > 100 µM | > 100 µM | > 100 µM | 16.3 µM | > 100 µM | > 100 µM | 47.2 µM | 34.5 µM | 23.6 µM | 39.6 µM | > 100 µM | 36.1 µM | 40.4 µM
4 | CCCCc1oc2ccccc2c1C(=O)c1cc(I)c(OCCN(CC)CC)c(I)c1 | 3.31 µM | 6.42 µM and 9.04 µM | 4.54 µM and 16.5 µM | 16.2 µM and 20.9 µM | 3.88 µM and 7.09 µM | 3.81 µM and 8.35 µM | 3.48 µM and 12.3 µM | 7.27 µM and 10.9 µM | 14.8 µM and 47.1 µM | 4.91 µM and 9.09 µM | 1.64 µM | 2.32 µM | 1.94 µM | 3.47 µM | 1.93 µM | 1.88 µM | 1.79 µM | 2.46 µM | 2.86 µM | 1.92 µM
5 | COc1cccc2cc(N(C)c3nc(C)nc4ccsc34)ccc12 | 12.3 µM | 27 µM | 11 µM | 19.8 µM | < 0.01 µM | 12.4 µM |  | 17.4 µM | 21.1 µM | 6.02 µM | < 0.01 µM | 10.8 µM | < 0.01 µM | < 0.0266 µM | < 0.01 µM | < 0.01 µM | < 0.01 µM | < 0.01 µM | < 0.01 µM | < 0.01 µM
6 | COc1cc(C(=O)/C=C/c2c(-c3cccs3)nc3ccccn23)cc(OC)c1OC | 7.07 µM | 4.46 µM | 6.92 µM | 21.6 µM | 5.01 µM | > 100 µM | 2.38 µM | 5.82 µM | > 100 µM | 3.72 µM | 2.31 µM | 1.88 µM | 1.89 µM | 3.13 µM | 2.01 µM | 2.24 µM | 1.1 µM | 2.64 µM | 3.12 µM | 1.23 µM
7 | CSc1ccc(C(=O)/C=C/c2ccc(F)cc2)cc1 | > 100 µM | > 100 µM | > 100 µM | > 100 µM | > 100 µM | > 100 µM | > 100 µM | > 100 µM | > 100 µM | 54.2 µM | > 100 µM | > 100 µM | > 100 µM | 76.2 µM | 48.9 µM | 33.4 µM | 38.9 µM | 99.6 µM | > 100 µM | 22.9 µM
